This is an account of results in patent publication US4945162A, “Novel radioactive propyl 2-iodospiroperidol and processes for the preparation thereof” (Sumitomo Chemical Company, Limited, priority 1986, dated 1990).

As a reminder, the Ki is a measure of affinity in units of concentration, obtained from inhibition or displacement. Read a high Ki as weaker binding. In general, IC50 refers to the midpoint of a concentration-inhibition curve. A lower IC50 goes with greater potency in that assay.

The target of this test is T1, Dopamine Receptors (Rat Striatal Membranes) (Rattus norvegicus, UniProt P61169).
T1 construct: For ^3 H-SP to Rat Striatal Membranes; from tissue; host or cells: rat striatum (membranes)
The experiment in a line: Inhibition of specific ^3 H-SP binding (dopamine receptor binding affinity) to rat striatal membranes. Conditions: for Ki / IC50: 23° C., 30 minutes, ketanserine present; for IC50: nonspecific binding with (+)butaclamol, triplicate; for Relative Potency: relative to 2-ISP = 100. The protocol:
PISP, 2-ISP and MISP were screened as for the dopamine receptor binding affinity according to the method reported by Hamblin [Biochem. Pharmacol. 33, 877-887 (1984)]. An aliquot of striatal membrane preparations was incubated at 23° C. for 30 minutes with each of the unlabeled competing drugs (PISP, 2-ISP and MISP) in different concentration, ketanserine and ^3 H-spiroperidol (hereinafter referred to as ^3 H-SP). The incubation was terminated by adding ice-cold TEAN buffer followed by a rapid filtration through a Whatman GF/B filter. The bound ^3 H-SP retained on the filter was extracted with ACS II (Amersham) and counted. All incubations were done in triplicate. Nonspecific binding was determined in tubes containing (+)butaclamol. Specific binding was calculated by subtracting the nonspecific binding from the total binding. IC50 values, the concentrations of the tested compounds that cause 50% inhibition of the specific ^3 H-SP binding, were assessed using from six to eight samples at different concentrations, in triplicate.

T1 sequence (P61169 whole entry): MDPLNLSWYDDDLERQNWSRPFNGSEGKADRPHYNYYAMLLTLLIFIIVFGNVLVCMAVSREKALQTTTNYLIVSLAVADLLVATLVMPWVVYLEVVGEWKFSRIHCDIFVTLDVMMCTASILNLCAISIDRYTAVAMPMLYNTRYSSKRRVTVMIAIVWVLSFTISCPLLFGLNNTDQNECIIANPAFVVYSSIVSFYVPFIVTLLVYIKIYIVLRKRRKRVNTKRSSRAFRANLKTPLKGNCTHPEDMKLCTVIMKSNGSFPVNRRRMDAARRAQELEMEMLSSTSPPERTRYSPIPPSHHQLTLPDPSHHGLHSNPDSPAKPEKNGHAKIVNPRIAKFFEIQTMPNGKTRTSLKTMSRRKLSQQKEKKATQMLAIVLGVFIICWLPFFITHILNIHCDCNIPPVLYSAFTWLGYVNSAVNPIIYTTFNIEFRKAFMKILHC

With `CN1CN(c2ccccc2)C2(CCN(CCCC(=O)c3ccc(F)cc3I)CC2)C1=O` [MISP, methyl 2-iodospiroperidol], the Ki stood at 5 nM, the IC50 turned out to be 55 nM and the “Relative Potency” value stood at 20.

Consider `O=C(CCCN1CCC2(CC1)C(=O)NCN2c1ccccc1)c1ccc(F)cc1I` [2-ISP, 2-iodospiroperidol], for which the Ki turned out to be 1 nM, the IC50 stood at 11 nM and the “Relative Potency” value is 100.

Regarding `CCCN1CN(c2ccccc2)C2(CCN(CCCC(=O)c3ccc(F)cc3I)CC2)C1=O` [PISP, 8-[4-(4-fluoro-2-iodophenyl)-4-oxobutyl]-3-propyl-1-phenyl-1,3,8-triazaspiro[4.5]decan-4-one], affinity was put at a Ki of 0.2 nM, the IC50 was found to be 2.5 nM and the “Relative Potency” value is on record as 500.
